System: culture from a ruminant animal foregut
Assay: administration of feed material and methanogenesis inhibitor to culturing device liquor, recording CH4 and dH2 (FIG. 11)
Format: cell-based, sheep
Conditions: final CHBr3 concentration 6 μM in 1.5 L liquor
Excerpt: FIG. 11 comprises a graph 1101 of the measured temperature on the upper y-axis 1102 shown in degrees Celsius (° C.), the measured CH4 on the middle y-axis 1103 in percentage (%), and the measured dH2 on the lower y-axis 1104 in milli Volts (mV) versus time on the x-axis 1105 measured in hours.
The plot 1106 of CH4 is the output of the SGX methane sensor as described in FIG. 8 800 and the accompanying text.
The plot 1006 of dH2 is the voltage generated by a hydrogen fuel cell as described in FIG. 7 700 and the accompanying text.
The culturing device vessel was inoculated with a culture sourced from a freshly slaughtered grass-fed ewe hogget sheep of mixed breed. After resection of the reticulorumen organ, 2.5 L the rumen content was determined to have a pH Of 6.0 and then transferred to a 5 L jug and mixed with 2.5 L of rainwater. A 0.7 L aliquot of this mixture was used to inoculate the vessel of a culturing device containing 0.8 L of rainwater pre-heated to the culturing device setpoint temperature of about 39° C.
After inoculation, the culturing device was prescribed the movement algorithm described in FIG. 10 1000 above.
As described herein, the vessel of the present examples has an internal volume of about 2.0 L and is typically operated with 1.5 L of liquor and 0.5 L of headspace. […]

## BrC(Br)Br [CHBr3]
Given with daily feed on, 39° C.
  measured CH4 (plot 1106), effect of added CHBr3: decreasing CH4
Then ceased, dH2 anticipated to increase when methanogenesis is reduced
  measured dH2 (plot 1107, hydrogen fuel cell voltage): mirrored in the plot 1107 of the dH2
